Patent US20020193564A1, “Oligomeric chaperone proteins” (priority 1999, published 2002)

Assays:
[1] = target: T1, heat- and dithiothreitol-denatured mtMDH (Sus scrofa, UniProt P00346); test: In vitro refolding of denatured mtMDH; format: biochemical, pig; details: 25° C., chaperone alone, FIG. 7b
T1 construct: Boehringer-Mannheim); purchased Boehringer-Mannheim; host or cells: pig heart
T1 sequence (P00346 25-338): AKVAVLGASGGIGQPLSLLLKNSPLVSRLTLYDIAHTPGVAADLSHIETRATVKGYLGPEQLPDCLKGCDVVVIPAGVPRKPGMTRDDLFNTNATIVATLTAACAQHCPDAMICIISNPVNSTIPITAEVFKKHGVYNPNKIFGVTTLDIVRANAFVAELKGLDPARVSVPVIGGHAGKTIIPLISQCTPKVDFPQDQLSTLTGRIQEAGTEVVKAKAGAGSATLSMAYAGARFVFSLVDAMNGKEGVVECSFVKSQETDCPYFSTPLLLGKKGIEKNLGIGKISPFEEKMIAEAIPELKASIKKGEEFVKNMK
Procedure: In vitro Refolding Experiments.
Refolding assays of pig heart mitochondrial malate dehydrogenase (mtMDH; Boehringer-Mannheim) and aggregation protection were carried out essentially as described (Peres Ben-Zvi, A. P., Chatellier, J., Fersht, A. R. & Goloubinoff, P. (1998) Proc. Natl. Acad. Sci. U.S.A. 95, 15275-15280). The concentrations of MC7 used were between 8-16 μM (reporter to protomer).

E. coli SV2 groEL44 = test: In vivo complementation of ts groEL44 at 43° C.; format: cell-based; details: plasmids pJC, relative to growth at 30° C.
Procedure: (§1) In vivo Complementation Experiments.
(§2) Complementation experiments were performed by transforming electro-competent SV2 or SV6 cells with the pJC series of expression vectors and plating an aliquot of the transformation reactions directly at 43° C. The percentage of viable cells relative to the growth at 30° C. was determined. A representative number of clones which grew at 43° C. were incubated in absence of any selective markers at permissive temperature. After prolonged growth the loss of the pJC plasmids and the ts phenotype were verified. Each experiment was performed in duplicate. Plasmids carrying no groE genes or encoding the GroE proteins were used as negative or positive controls, respectively.

E. coli SV6 groEL673 = test: In vivo complementation of ts groEL673 at 43° C.; format: cell-based; details: plasmids pJC, relative to growth at 30° C.
Procedure: as §1, §2

bacteriophage λ = test: Growth of bacteriophage λ in transformed groEL strains; format: cell-based, bacteriophage λ (b2cI) in E. coli
bacteriophage T4 = test: Growth of bacteriophage T4 in transformed groEL strains; format: cell-based, bacteriophage T4 (T4D0) in E. coli; design: key to Growth of bacteriophage T4, SV1 (groEL^+) / Growth of bacteriophage T4, SV2 groEL44 / Growth of bacteriophage T4, SV3 GroEL59 / Growth of bacteriophage T4, SV6 groEL673: +++: normal plaque-forming ability relative to wild-type groEL^+ strain, in terms of both number and size; ++: 5-fold fewer plaques relative to wild-type groEL^+ strain, or both; 10-fold fewer plaques, or plaque size reduced relative to wild-type groEL^+ strain, or both; +/−: 10^2-fold fewer plaques and plaque size reduced relative to wild-type groEL^+ strain; no visible plaques (<10^−4); details: 37° C.
Source text: The E. Coli strains used in this study were: C41(DE3), a mutant of BL21(DE3) capable of expressing toxic genes (Miroux, B. & Walker, J. E. (1996) J. Mol. Biol. 260, 289-298); SV2 (B178groEL44), SV3 (B178groEL59) and SV6 (B178groEL673): isogenic strains carrying temperature-sensitive alleles of groEL; SV1(=B178) (Georgopoulos, C., Hendrix, R. W., Casjens, S. R. & Kaiser, A. D. (1973) J. Mol. Biol. 76, 45-60), A190 (ΔgroEL::kan^R) [pBAD-EL] (Ivic, A., Olden, D., Wallington, E. J. & Lund, P. A. (1997) Gene 194, 1-8), and TG1 (Gibson, T. J. (1984) Ph.D. thesis, University of Cambridge, U.K). Bacteriophage λb2cI (Zeilstra-Ryalls, J., Fayet, O., Baird, L. & Georgopoulos, C. (1993) J. Bacteriol. 175, 1134-1143) was used according to standard methods (Arber, W., Enquist, L., Hohn, B., Murray, N. E. & Murray, K. (1983) in Lambda II., ed. R. W. Hendrix, J. W. r., F. W. Stahl and R. A. Weisberg (Cold Spring Harbor Laboratory, Cold Spring Harbor, N.Y.), pp. 433-466); plaque formation was assayed at 30° C. T4D0, a derivative of bacteriophage T4 (Zeilstra-Ryalls, J., Fayet, O., Baird, L. & Georgopoulos, C. (1993) J. Bacteriol. 175, 1134-1143), was used according to standard methods (Karam, J. D. (1994) Molecular biology of bacteriophage T4. (American Society for Microbiology, Washington, D.C.)); plaque formation was assayed at 37° C.

[2] = tested on: Lorist6 (bacteriophage λ origin vector); test: Effect of over-expression on Lorist6 replication; format: cell-based, E. coli; details: over-expression from pJC
Procedure: Effect on Lorist6 Replication of Over-Expressing of MC7.
The effect of over-expressing Gp31 proteins from pJC vector series on the replication of the bacteriophage λ origin vector, Lorist6 (Gibson, T. J., Rosenthal, A. & Waterston, R. H. (1987) Gene 53, 283-286) in TG1 (Gibson, T. J. (1984) Ph.D. thesis, University of Cambridge, U.K) or SV1 (Georgopoulos, C., Hendrix, R. W., Casjens, S. R. & Kaiser, A. D. (1973) J. Mol. Biol. 76, 45-60) cells was determined essentially as described (Chatellier, J., Hill, F., Lund, P. & Fersht, A. R. (1998) Proc. Natl. Acad. Sci. U.S.A. 95, 9861-9866).

GroEL(1-548): key molecular chaperone in Escherichia coli, 14 subunits of 57.5 kD in two seven membered rings
rate of refolding denatured mtMDH [1]: 0.04 nM/min | Relative colony forming ability, SV2 groEL44 (E. coli SV2 groEL44): 1 | Relative colony forming ability, SV6 groEL673 (E. coli SV6 groEL673): 1 | Growth of bacteriophage λ, SV1 (groEL^+) (bacteriophage λ; 30° C., SV1): − (no visible plaques (<10^−4)) | Growth of bacteriophage λ, SV2 groEL44 (bacteriophage λ; 30° C., SV2): + (10-fold fewer plaques, or plaque size reduced relative to wild-type groEL^+ strain, or both) | Growth of bacteriophage λ, SV3 GroEL59 (bacteriophage λ; 30° C., SV3): ++ (5-fold fewer plaques relative to wild-type groEL^+ strain, or both) | Growth of bacteriophage λ, SV6 groEL673 (bacteriophage λ; 30° C., SV6): +/− (10^2-fold fewer plaques and plaque size reduced relative to wild-type groEL^+ strain) | Complementation of groEL mutant strains for bacteriophage λ growth (bacteriophage λ; 30° C., groEL mutant strains): weak complementation | Effect of over-expression on λ growth / plaque counts (bacteriophage λ; SV1 (groE^+)): suffices to inhibit λ growth | Growth of bacteriophage T4, SV1 (groEL^+) (bacteriophage T4; SV1): +++ | Growth of bacteriophage T4, SV2 groEL44 (bacteriophage T4; SV2): +++ | Growth of bacteriophage T4, SV3 GroEL59 (bacteriophage T4; SV3): +++ | Growth of bacteriophage T4, SV6 groEL673 (bacteriophage T4; SV6): +++ | replication of the Lorist6 plasmid [2]: inhibit the replication
